Data published in patent publication US9975852B2, “Quinoline sulfonyl derivatives and uses thereof” (Health Sciences North Research Institute, priority 2013, dated 2018).

Assays:
MCF10A non-cancer cells = experiment: Confocal microscopy of centrosomes, MCF10A non-cancer cells; type: cell-based, human; conditions: VR-23 20 μM, 3 hours post-DT
Excerpt: All immunocytochemistry experiments were visualized by confocal microscopy using a Zeiss 510 Meta laser scanning microscope (Carl Zeiss) equipped with a 63× objective lens, unless otherwise specified herein. Three lasers were utilized for excitation with the following band pass filter settings used for detection: Argon 488 nm (band pass 505-530), HeNe 543 nm (long pass 560) and 633 nm (long pass 650). All images were captured and analyzed using LSM 510 software included with the microscope (LSM Image Examiner™, Carl Zeiss).
The synchronization at the G1/S border (more accurately at the beginning of S phase) was achieved by double thymidine block (DT). Briefly, exponentially growing cells are treated with 2.0 mM thymidine for 18 hours, followed by incubation for 11 hours in drug-free complete medium, by which time most cells are at mid-late G1 phase. The cells are then incubated for another 14 hours in 2.0 mM thymidine to arrest them at the G1/S border. To arrest cells at the G2/M phase, cells were maintained for 18 hours in complete medium containing nocodazole (50 ng/ml). Both these synchronization are reversible.
MCF10A (non-cancer breast) cells synchronized at G1/S by DT were released into complete medium for 3 hours in the absence (control) or presence of VR-23 (20 μM), followed by immunostaining with an antibody specific for cyclin E (FIG. 19A) or Plk1 or Plk4 (FIG. 19B). […]

[1] = system: MDA-MB231 human metastatic breast cancer cells; experiment: Xenograft antitumor activity, ATH490 mice engrafted with MDA-MB231; type: in vivo
Protocol: Five-week-old female CD-1 and ATH490 (strain code 490) athymic nude mice were purchased from Charles River (Quebec, Canada). The MDA-MB231 human metastatic breast cancer cells were obtained from the American Tissue Culture Collection (ATCC, Manassas, Va., USA). Cells were maintained under humidified condition at 37° C. and 5% CO2 in DMEM high glucose medium (ATCC) supplemented with 10% fetal bovine serum and antibiotics. All animal experiments, including animal handling, care, treatment and endpoint determination, were reviewed and approved by the Laurentian University Animal Care Committee (ACC) and carried out at Laurentian University Animal Care facility (Sudbury, Ontario, Canada)
To determine anti-tumor activity of VR-23 in an animal model, a xenograft model of human breast cancer cells in athymic nude mice was established. Exponentially growing MDA-MB231 cells were harvested and counted for inoculation into mice. Each mouse was subcutaneously injected at the flank with 10×10^6 cells in 0.2 ml ice cold 1×PBS. When tumor size reached 4-5 mm in diameter (n=4-5 per group), mice were randomly assigned into five (or more) groups.

Question: For `O=[N+]([O-])c1ccc(S(=O)(=O)N2CCN(c3ccnc4cc(Cl)ccc34)CC2)c([N+](=O)[O-])c1` [Compound 1, 7-Chloro-4-(4-(2,4-dinitrophenylsulfonyl)piperazin-1-yl)quinoline], which “Centrosome amplification in MCF10A” value (MCF10A non-cancer cells) is on record?
Answer: did not cause centrosome amplification

Question: And the “Decrease of tumor size compared to sham-treated control” value ([1]; VR-23 30 mg/kg twice per week i.p., three weeks)?
Answer: 4.6 fold

Question: What about the “Tumor size D0” value ([1]; day 0, dosing as in Table IX B) of the same compound?
Answer: 46.51 ± 2.82

Question: What about the “Tumor size D7” value ([1]; day 7 post-treatment, dosing as in Table IX B) of the same compound?
Answer: 52.74 ± 5.64

Question: And the “Tumor size D15” value ([1]; day 15 post-treatment, dosing as in Table IX B)?
Answer: 48.29 ± 17.30

Question: And the “Tumor size D18” value ([1]; day 18 post-treatment, dosing as in Table IX B)?
Answer: 42.41 ± 17.95

Question: And the “Tumor size D22” value ([1]; day 22 post-treatment, dosing as in Table IX B)?
Answer: 65.88 ± 25.92

Question: And the “VEGF immunostaining of tumor” value ([1]; four weeks treatment)?
Answer: did not show any notable amount of VEGF

Question: And the “Angiogenesis and spread of tumor cells” value ([1]; four weeks treatment, H & E)?
Answer: inhibited angiogenesis and the spread of tumor cells to surrounding tissue/organs

Question: And the “Tumor cell proliferation (Ki-67, mitotic index)” value ([1]; tumor samples 15 and 29 days post-treatment)?
Answer: inhibited tumor cell proliferation
